# Measured values: US6160008A, “Pharmaceutical compositions comprising S-alkylisothiouronium derivatives” (priority 1996, dated 2000)
# Entries after “also recorded” stand apart in the source; their conditions may differ.
# Tests used:
# [1] = Biochemical tests of dog blood serum and general toxicity, 3-day experiment (Tables 10-14); assay type: in vivo; settings: 10 mg/kg i.v. daily, 3 days, dogs
# Method: In an experiment on dogs, the functional condition of the organism was estimated by biochemical tests, after the intravenous injection of a 10% solution S-ethylisothiouronium diethylphosphate, at a dose of 10 mg/kg daily. This experiment was conducted at the same time of the day. Blood was examined 1 hour after the administration of the preparation during 3 successive days and on the 4th, the 5th and on the 10th day after injection. The concentrations of total protein, of albumin, globulins, total cholesterol, and glucose in dog blood serum were determined by conventional methods. The total protein content was determined by biureth method, total cholesterol--by like method, glucose--by glucose-oxidase method.
# The general toxicity and biochemical parameters were determined in a 3-day experiment, where a 10% solution of the preparation was daily intravenously injectioned at a dose of 10 mg/kg.
# [2] = tested on: system hemodynamic indices during hemorrhagic shock; test: System hemodynamic indices during hemorrhagic shock (Table 4); assay type: in vivo, cats
# Method: For the experimental model of hemorrhagic shock closely resembling acute clinical situations, acute blood loss in cats was chosen (3.2% of the body mass) which constitutes 45-47% of the blood circulation volume during 3-5 minutes. To determine maximum efficiency and effective duration, parameters of the system blood circulation were determined before blood-letting and in 30 minutes after blood-letting, as well as on the 2nd, 10th, 30th and 60th minutes after intravenous injection of the medicine.
# [3] = Biochemical indices of mice blood serum, chronic experiment (Table 9); assay type: in vivo, F1 (C57B1×CBA); settings: for Body mass / Glucose / Total cholestrol / Total protein: 100 mg/kg i.v.; for Total protein: in g/L (unit assumed)
# Method: (§1) The effect of S-ethylisothiouronium diethylphosphate on body constituents was estimated in chronic and acute experiments. These experiments were conducted on F1 (C57B1×CBA) line mice and biochemical tests were made after a single administration of S-ethylisothiouronium diethylphosphate, injected intravenously at doses of 100 mg/kg (in the chronic experiment) and 500 mg/kg (in the acute experiment).
# (§2) In the acute experiment, blood was taken 30, 60 and 75 minutes after the administration of the medicine. In the chronic experiment (which lasted 30 days), blood was daily examined 1 hour after the injection. Terms of the study were 1, 7, 14, and 21 days. The concentrations of total protein, total cholesterol, and glucose in mice blood serum were determined by conventional methods. Total protein was determined by a biuret method, total cholesterol--by like method, glucose--by the glucose-oxidase method.
# (§3) Mouse blood was obtained after rapid decapitation. Tested material was sampled at the same time of the day and on the same season.
# (§4) Blood for serum was sampled into centrifuge test tubes, put into the thermostat for 30-40 minutes; the clot was outlined by a needle, then it was put into a refrigerator for 1 hour+4° C. After cooling it was centrifuged at 3000 RPM during 10-15 minutes. Serum with no signs of hemolysis was sampled into a clean tube. All quantitative indices of the blood biochemical characteristics were obtained by spectrophotometric measurements. Calibration curves to determine total protein and cholesterol were constructed in advance.
# [4] = Biochemical indices of mice blood serum, acute experiment (Table 8); assay type: in vivo, F1 (C57B1×CBA); settings: 500 mg/kg i.v.; for Total protein: in g/L (unit assumed)
# Method: as §1, §2, §3, §4
# [5] = 5 mg/kg i.v., 2 min after injection
# [6] = 5 mg/kg i.v., 10 min after injection
# [7] = 5 mg/kg i.v., 30 min after injection
# [8] = 5 mg/kg i.v., 60 min after injection
compound,measurement,setting,value
CCSC(=N)N [S-ethylisothiouronium diethylphosphate],General toxicity and serum biochemistry in words,[1],wavy fluctuations with the tendency to decrease on the 4th and 5th day; also recorded: The level of albumins and globulins also changed in a wavy manner; also recorded: The level of total cholesterol and glucose had slight fluctuations which did not overstep the fluctuation limits of healthy dogs; also recorded: no evidence was found for intoxication or any significant deviation between the parameters studied and the initial data; also recorded: individual sensitivity of the animals to intravenous injection of the preparation was not found
same,AP increase compared to the 30th minute after bleeding,"[2]; 5 mg/kg i.v., 2nd minute",88%
same,ALV,[2]; [5],166.6 ± 18.4 g/cm
same,AP,[2]; [5],122.3 ± 6.0 mm Hg
same,Central blood volume,[2]; [5],58.6 ± 4.1 mL
same,HF,[2]; [5],182.0 ± 15.0 per min.
same,MVC,[2]; [5],52.4 ± 6.0 mL/min/kg
same,Number of blood circulations,[2]; [5],2.9 ± 0.2 min
same,Pr,[2]; [5],202.8 ± 28.7 10^3 . din . c . cm^-3
same,Stroke volume,[2]; [5],1.0 ± 0.1 mL
same,ALV,[2]; [6],130.5 ± 15.4 g/cm
same,AP,[2]; [6],112.5 ± 7.6 mm Hg
same,Central blood volume,[2]; [6],49.2 ± 4.5 mL
same,HF,[2]; [6],186.0 ± 14.1 per min.
same,MVC,[2]; [6],46.0 ± 5.7 mL/min/kg
same,Number of blood circulations,[2]; [6],3.0 ± 0.2 min
same,Pr,[2]; [6],225.1 ± 56.6 10^3 . din . c . cm^-3
same,Stroke volume,[2]; [6],0.9 ± 0.1 mL
same,ALV,[2]; [7],75.9 ± 19.4 g/cm
same,AP,[2]; [7],87.5 ± 15.4 mm Hg
same,Central blood volume,[2]; [7],43.2 ± 4.7 mL
same,HF,[2]; [7],179.1 ± 12.4 per min.
same,MVC,[2]; [7],30.8 ± 5.5 mL/min/kg
same,Number of blood circulations,[2]; [7],2.4 ± 0.3 min
same,Pr,[2]; [7],244.7 ± 39.1 10^3 . din . c . cm^-3
same,Stroke volume,[2]; [7],0.6 ± 0.1 mL
same,ALV,[2]; [8],77.0 ± 17.0 g/cm
same,AP,[2]; [8],84.2 ± 18.9 mm Hg
same,Central blood volume,[2]; [8],45.5 ± 5.1 mL
same,HF,[2]; [8],166.8 ± 15.2 per min.
same,MVC,[2]; [8],35.7 ± 5.5 mL/min/kg
same,Number of blood circulations,[2]; [8],3.5 ± 0.2 min
same,Pr,[2]; [8],245.3 ± 62.6 10^3 . din . c . cm^-3
same,Stroke volume,[2]; [8],0.7 ± 0.1 mL
same,MVC increase,"[2]; 5 mg/kg i.v., initially",19%
same,Effect in hemorrhagic shock in words,"[2]; hemorrhagic shock, cats","the decrease in HR was noted; also recorded: SV increased only on the 2nd minute after the medicine injection; also recorded: Alv essentially increased on the 2nd and 10th minutes; also recorded: PR increased during the whole period of observation; also recorded: practically does not lose efficiency in case of metabolic acidosis; also recorded: improves system hemodynamic indices in hemorrhagic shock conditions; also recorded: the peripheral vascular resistance increases, the stroke volume and central blood volume increase, and the work of the left ventricle improves"
same,Body mass,[3]; 1st day,23.8 ± 0.1 g
same,Glucose,[3]; 1st day,7.1 ± 1.4 mmol/L
same,Total cholestrol,[3]; 1st day,4.7 ± 0.9 mmol/L
same,Total protein,[3]; 1st day,75.6 ± 4.9
same,Body mass,[3]; 7th day,24.0 ± 0.2 g
same,Glucose,[3]; 7th day,8.2 ± 1.8 mmol/L
same,Total cholestrol,[3]; 7th day,5.0 ± 0.6 mmol/L
same,Total protein,[3]; 7th day,63.5 ± 4.4
same,Body mass,[3]; 14th day,28.1 ± 0.3 g
same,Glucose,[3]; 14th day,8.8 ± 1.7 mmol/L
same,Total cholestrol,[3]; 14th day,3.0 ± 0.36 mmol/L
same,Total protein,[3]; 14th day,72.4 ± 3.3
same,Body mass,[3]; 21st day,26.1 ± 0.5 g
same,Glucose,[3]; 21st day,9.9 ± 1.8 mmol/L
same,Total cholestrol,[3]; 21st day,4.9 ± 0.42 mmol/L
same,Total protein,[3]; 21st day,74.9 ± 2.4
same,Serum biochemistry in words,"[3]; 100 mg/kg, chronic experiment",fluctuations of the studied parameters do not exceed the limits of physiological fluctuations
same,Body mass,[4]; 30 min,24.8 ± 1.2 g
same,Glucose,[4]; 30 min,13.4 ± 2.6 mmol/L
same,Total cholestrol,[4]; 30 min,7.8 ± 1.2 mmol/L
same,Total protein,[4]; 30 min,99.0 ± 4.3
same,Serum biochemistry in words,[4]; 30 minutes,"an increase in the concentration of total protein, cholesterol and glucose was observed, which subsequently had the tendency for normalization"
same,Body mass,[4]; 60 min,26.1 ± 1.8 g
same,Glucose,[4]; 60 min,9.0 ± 0.8 mmol/L
same,Total cholestrol,[4]; 60 min,7.2 ± 1.6 mmol/L
same,Total protein,[4]; 60 min,89.4 ± 4.6
same,Body mass,[4]; 75 min,26.0 ± 0.5 g
same,Glucose,[4]; 75 min,6.6 ± 1.0 mmol/L
same,Total cholestrol,[4]; 75 min,5.4 ± 1.2 mmol/L
same,Total protein,[4]; 75 min,87.6 ± 3.8
